Test results from publication PMC11823630, “In vitro potentiation of tetracyclines in Pseudomonas aeruginosa by RW01, a new cyclic peptide” (Antimicrobial Agents and Chemotherapy, 2024).
In brackets after ≈: the same amount, converted by molar mass.

Key:
[1] = tested on: PAO1 mutant MIN4_RW01_2, pmrB(F124S); assay: microbe, parasite or virus in culture; type: cell-based; details: Pseudomonas aeruginosa, PAO1, read-out: MIC, Sensititre
Method: (§1) Selection of resistant mutants was performed for minocycline with and without RW01 in three independent replicates for wild-type P. aeruginosa reference strain PAO1. Tubes containing Mueller-Hinton broth (MHB) were inoculated and incubated for 24 h at 37°C. Afterward, 1/100 dilution of each tube was incubated at 37°C in MHB to late-exponential growth phase, measured by spectrophotometry at OD600. […] A control plate without antibiotic was included as inoculum control. After overnight incubation, colony counting of each treatment was performed to analyze the generation of resistant population. The mutant prevention concentration (MPC) was defined as the lowest concentration of antibiotic yielding no growth of resistant mutants. Selected mutants were checked for susceptibility profiles by using a Sensititre custom plate (Thermo Fisher Scientific, Massachusetts, USA) for Gram-negative bacteria, following the manufacturer’s instructions.

[2] = tested on: PAO1 mutant MIN1_RW01_4, pmrB(F124L); assay: microbe, parasite or virus in culture; type: cell-based; details: Pseudomonas aeruginosa, PAO1, read-out: MIC, Sensititre
Method: as §1

P. aeruginosa PAOΔmexZ = assay: MIC, CLSI broth microdilution in BD Phoenix AST Broth; type: cell-based, Pseudomonas aeruginosa; details: Pseudomonas aeruginosa, strain PAOΔmexZ; agent alone; 37°C, 18–22 h; three biological replicates
Method: (§2) MIC for RW01 was also tested.
(§3) FIC of RW01 (FICRW01)=MIC of RW01 in combination/MIC of RW01 alone,FIC of antibiotic (FICATB)=MIC of ATB in combination/MIC of ATB alone,FICI=FICRW01 +FICATB.
(§4) FICI was interpreted as follows: synergistic effect if FICI is ≤0.5; additive effect if 0.5 < FICI ≤ 1.0; indifferent effect if 1.0 < FICI ≤ 2.0; and finally, antagonistic effect if FICI is >2.0. The average FICI considering the antibiotic MIC (no growth in any of the replicates) at different concentrations of RW01 was calculated ([28]).

P. aeruginosa 41A = assay: as above; type: cell-based, Pseudomonas aeruginosa; details: Pseudomonas aeruginosa; strain 41A; agent alone; 37°C, 18–22 h; three biological replicates
Method: as §2, §3, §4

P. aeruginosa PAOUW∆oprF = assay: as above; type: cell-based, Pseudomonas aeruginosa; details: Pseudomonas aeruginosa, strain PAOUWΔoprF; agent alone; 37°C, 18–22 h; three biological replicates
Method: as §2, §3, §4

P. aeruginosa 125B = assay: as above; type: cell-based, Pseudomonas aeruginosa; details: Pseudomonas aeruginosa; strain 125B; agent alone; 37°C, 18–22 h; three biological replicates
Method: as §2, §3, §4

P. aeruginosa PAOΔoprM = assay: as above; type: cell-based, Pseudomonas aeruginosa; details: Pseudomonas aeruginosa
Method: as §2, §3, §4

P. aeruginosa PAOΔmexR = assay: as above; type: cell-based, Pseudomonas aeruginosa; details: Pseudomonas aeruginosa
Method: as §2, §3, §4

P. aeruginosa PAO1 = assay: as above; type: cell-based, Pseudomonas aeruginosa; details: Pseudomonas aeruginosa, PAO1, strain PAO1; agent alone; 37°C, 18–22 h; three biological replicates; read-out: MIC
Method: as §2, §3, §4

P. aeruginosa PAOUW = assay: as above; type: cell-based, Pseudomonas aeruginosa; details: Pseudomonas aeruginosa, strain PAOUW; agent alone; 37°C, 18–22 h; three biological replicates; read-out: MIC
Method: as §2, §3, §4

P. aeruginosa 41B = assay: as above; type: cell-based, Pseudomonas aeruginosa; details: Pseudomonas aeruginosa; strain 41B; agent alone; 37°C, 18–22 h; three biological replicates
Method: as §2, §3, §4

P. aeruginosa 125A = assay: as above; type: cell-based, Pseudomonas aeruginosa; details: Pseudomonas aeruginosa; strain 125A; agent alone; 37°C, 18–22 h; three biological replicates
Method: as §2, §3, §4

[3] = tested on: PAO1 mutant MIN4_RW01_4, pmrB(Y98N); assay: MIC, Sensititre custom plate; type: cell-based; details: Pseudomonas aeruginosa, PAO1, read-out: MIC, Sensititre
Method: as §1

[4] = tested on: PAO1 mutant MIN16_4, nalC(T50P), pilM(Q62X); assay: MIC, Sensititre custom plate; type: cell-based; details: Pseudomonas aeruginosa, PAO1, read-out: MIC, Sensititre
Method: as §1

[5] = tested on: PAO1 mutant MIN1_RW01_1, pmrB(Y98N); assay: MIC, Sensititre custom plate; type: cell-based; details: Pseudomonas aeruginosa, PAO1, read-out: MIC, Sensititre
Method: as §1

[6] = tested on: PAO1 mutant MIN8_1, nalD(R3C), pilM(Q62X); assay: MIC, Sensititre custom plate; type: cell-based; details: Pseudomonas aeruginosa, PAO1, read-out: MIC, Sensititre
Method: as §1

[7] = tested on: PAO1 mutant MIN2_RW01_3, parS(V152A); assay: MIC, Sensititre custom plate; type: cell-based; details: Pseudomonas aeruginosa, PAO1, read-out: MIC, Sensititre
Method: as §1

P. aeruginosa PAO1, WT = assay: MIC, Sensititre custom plate; type: cell-based; details: Pseudomonas aeruginosa, PAO1, read-out: MIC, Sensititre
Method: as §1

[8] = tested on: PAO1 mutant MIN2_RW01_1, pmrB(V215L); assay: MIC, Sensititre custom plate; type: cell-based; details: Pseudomonas aeruginosa, PAO1, read-out: MIC, Sensititre
Method: as §1

[9] = tested on: PAO1 mutant MIN4_RW01_1, pmrB(R429H); assay: MIC, Sensititre custom plate; type: cell-based; details: Pseudomonas aeruginosa, PAO1, read-out: MIC, Sensititre
Method: as §1

[10] = tested on: PAO1 mutant MIN16_3, nfxB(nt79∆14), pilB(N349K); assay: MIC, Sensititre custom plate; type: cell-based; details: Pseudomonas aeruginosa, PAO1, read-out: MIC, Sensititre
Method: as §1

[11] = tested on: PAO1 mutant MIN1_RW01_2, mexR(G58E), pilB(G326D), hutC(Y181X); assay: MIC, Sensititre custom plate; type: cell-based; details: Pseudomonas aeruginosa, PAO1, read-out: MIC, Sensititre
Method: as §1

[12] = tested on: PAO1 mutant MIN8_3, pilZ(nt18InsT); assay: MIC, Sensititre custom plate; type: cell-based; details: Pseudomonas aeruginosa, PAO1, read-out: MIC, Sensititre
Method: as §1

[13] = tested on: PAO1 mutant MIN4_RW01_3, pmrB(M292T); assay: MIC, Sensititre custom plate; type: cell-based; details: Pseudomonas aeruginosa, PAO1, read-out: MIC, Sensititre
Method: as §1

[14] = tested on: PAO1 mutant MIN16_2, nalC(aa9∆4), pilQ(nt46∆1); assay: MIC, Sensititre custom plate; type: cell-based; details: Pseudomonas aeruginosa, PAO1, read-out: MIC, Sensititre
Method: as §1

[15] = tested on: PAO1 mutant MIN2_RW01_4, pmrB(M292T); assay: MIC, Sensititre custom plate; type: cell-based; details: Pseudomonas aeruginosa, PAO1, read-out: MIC, Sensititre
Method: as §1

[16] = tested on: PAO1 mutant MIN1_RW01_3, pmrB(V215L); assay: MIC, Sensititre custom plate; type: cell-based; details: Pseudomonas aeruginosa, PAO1, read-out: MIC, Sensititre
Method: as §1

[17] = tested on: PAO1 mutant MIN16_1, nalD(T43P); assay: MIC, Sensititre custom plate; type: cell-based; details: Pseudomonas aeruginosa, PAO1, read-out: MIC, Sensititre
Method: as §1

[18] = tested on: PAO1 mutant MIN8_2, pilZ(nt18InsT); assay: MIC, Sensititre custom plate; type: cell-based; details: Pseudomonas aeruginosa, PAO1, read-out: MIC, Sensititre
Method: as §1

[19] = tested on: PAO1 mutant MIN2_RW01_2, pmrB(M292T); assay: MIC, Sensititre custom plate; type: cell-based; details: Pseudomonas aeruginosa, PAO1, read-out: MIC, Sensititre
Method: as §1

[20] = tested on: PAO1 mutant MIN32_1, mexR(R63H), pilB(N349K), PA0646(V316G); assay: MIC, Sensititre custom plate; type: cell-based; details: Pseudomonas aeruginosa, PAO1, read-out: MIC, Sensititre
Method: as §1

[21] = tested on: PAO1 mutant MIN8_4, pilZ(nt18InsT); assay: MIC, Sensititre custom plate; type: cell-based; details: Pseudomonas aeruginosa, PAO1, read-out: MIC, Sensititre
Method: as §1

SMILES | MIC [1] | MIC [2] | MIC [3] | MIC [4] | MIC [5] | MIC [6] | MIC [7] | MIC (P. aeruginosa PAO1, WT) | MIC [8] | MIC [9] | MIC [10] | MIC [11] | MIC [12] | MIC [13] | MIC [14] | MIC [15] | MIC [16] | MIC [17] | MIC [18] | MIC [19] | other results
C[C@@H](O)[C@H]1C(=O)N2C(C(=O)O)=C(S[C@@H]3CN[C@H](C(=O)N(C)C)C3)[C@H](C)[C@H]12 [Meropenem, meropenem] | ≤ 0.5 µg/mL | 1 µg/mL (≈ 2.61 µM) | 1 µg/mL (≈ 2.61 µM) | 2 µg/mL (≈ 5.22 µM) | 1 µg/mL (≈ 2.61 µM) | 2 µg/mL (≈ 5.22 µM) | 2 to 4 µg/mL (≈ 5.22 to 10.4 µM) | 1 to 2 µg/mL (≈ 2.61 to 5.22 µM) | 1 µg/mL (≈ 2.61 µM) | 4 µg/mL (≈ 10.4 µM) | ≤ 0.5 µg/mL | 4 µg/mL (≈ 10.4 µM) | 2 µg/mL (≈ 5.22 µM) | 2 µg/mL (≈ 5.22 µM) | 2 µg/mL (≈ 5.22 µM) | 1 µg/mL (≈ 2.61 µM) | 1 µg/mL (≈ 2.61 µM) | 4 µg/mL (≈ 10.4 µM) | 2 µg/mL (≈ 5.22 µM) | 1 µg/mL (≈ 2.61 µM) | MIC (P. aeruginosa PAOΔmexZ): 0.5 µg/mL; MIC (P. aeruginosa 41A): 4 µg/mL; MIC (P. aeruginosa PAOUW∆oprF): 2 µg/mL; MIC (P. aeruginosa 125B): 0.5 µg/mL; MIC (P. aeruginosa PAOΔoprM): 0.125 µg/mL; MIC (P. aeruginosa PAOΔmexR): 1 µg/mL; MIC (P. aeruginosa PAO1): 0.5 µg/mL; MIC (P. aeruginosa PAOUW): 1 µg/mL; MIC (P. aeruginosa 41B): 16 µg/mL; MIC (P. aeruginosa 125A): 0.5 µg/mL; MIC [20]: 4 µg/mL (≈ 10.4 µM); MIC [21]: 2 µg/mL (≈ 5.22 µM)
NC[C@H]1O[C@H](O[C@H]2[C@H](O)[C@@H](O[C@H]3O[C@H](CO)[C@@H](O)[C@H](N)[C@H]3O)[C@H](N)C[C@@H]2N)[C@H](N)C[C@@H]1O [TOB, tobramycin] | 0.5 µg/mL (≈ 1.07 µM) | ≤ 0.25 µg/mL | 1 µg/mL (≈ 2.14 µM) | ≤ 0.25 µg/mL | 1 µg/mL (≈ 2.14 µM) | 0.5 µg/mL (≈ 1.07 µM) | 1 µg/mL (≈ 2.14 µM) | 0.25 to 0.5 µg/mL (≈ 0.535 to 1.07 µM) | 0.5 µg/mL (≈ 1.07 µM) | 0.5 µg/mL (≈ 1.07 µM) | ≤ 0.25 µg/mL | ≤ 0.25 µg/mL | ≤ 0.25 µg/mL | 0.5 µg/mL (≈ 1.07 µM) | ≤ 0.25 µg/mL | 0.5 µg/mL (≈ 1.07 µM) | 1 µg/mL (≈ 2.14 µM) | 0.5 µg/mL (≈ 1.07 µM) | 0.5 µg/mL (≈ 1.07 µM) | 0.5 µg/mL (≈ 1.07 µM) | MIC [20]: 0.25 to 0.5 µg/mL (≈ 0.535 to 1.07 µM); MIC [21]: 0.5 µg/mL (≈ 1.07 µM)
